{"source": "patent US20040192772A1", "about": "“Agent for treating the symptoms of dementia disorders and/or depression” (priority 2001, published 2004)", "test_system": "patients suffering from dementia disorders and depression", "assay": "therapy of patients suffering from dementia disorders and depression", "format": "in vivo, human", "conditions": "compared with the other local anaesthetics of the anilide group (lidocaine, bupivacaine, butanilicaine, etidocaine, tholycaine, ropivacaine)"}
{"compound": "Cc1cccc(C)c1NC(=O)C1CCCCN1C", "note": "(stereo not shown) [Mepivacaine, mepivacaine]", "values": [{"measurement": "effectiveness for the therapy of patients suffering from dementia disorders and depression", "result": "most effective"}]}
